Key:
physchem [1] = settings: octanol/water, pH 7.4, logD
physchem [2] = assay: physchem
Description: Ionization constant (pKa)

[3] = molecular target: Beta-2 adrenergic receptor (Cavia porcellus) (UniProt Q8K4Z4); settings: Trachea
Description: Beta-2-adrenoceptor potency was determined in rings of guinea-pig isolated trachea

[4] = molecular target: Beta-2 adrenergic receptor (Cavia porcellus) (UniProt Q8K4Z4)
Description: In vitro beta-2 duration was determined using electrically stimulated guinea-pig isolated trachea superfusion system

[5] = molecular target: D(2) dopamine receptor (Homo sapiens) (UniProt P14416); assay: […] D2 duration was determined using electrically stimulated guinea-pig isolated trachea superfusion system; format: functional; settings: Cavia porcellus, target entry is the homologue from another species
physchem [6] = assay: physchem; remark: listed apart in the source
Description: (§1) Classification of ionization constant (pKa)

physchem [7] = assay: physchem; remark: listed apart in the source
Description: as §1

Chain of D(2) dopamine receptor (Homo sapiens) (P14416 whole entry, the tested form may be a part): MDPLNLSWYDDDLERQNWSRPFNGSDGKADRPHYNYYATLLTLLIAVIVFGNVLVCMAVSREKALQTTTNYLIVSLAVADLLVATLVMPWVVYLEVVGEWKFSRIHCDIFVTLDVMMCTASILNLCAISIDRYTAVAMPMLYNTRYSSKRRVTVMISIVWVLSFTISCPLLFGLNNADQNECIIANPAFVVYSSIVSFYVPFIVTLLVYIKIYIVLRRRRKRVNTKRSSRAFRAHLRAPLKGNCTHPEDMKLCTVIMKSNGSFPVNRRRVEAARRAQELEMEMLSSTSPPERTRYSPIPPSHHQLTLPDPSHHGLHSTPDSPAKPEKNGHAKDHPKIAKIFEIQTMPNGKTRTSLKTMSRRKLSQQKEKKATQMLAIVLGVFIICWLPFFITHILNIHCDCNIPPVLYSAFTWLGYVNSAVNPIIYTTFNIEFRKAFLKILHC
Chain of Beta-2 adrenergic receptor (Cavia porcellus) (Q8K4Z4 whole entry, looked up, the tested form may be a part): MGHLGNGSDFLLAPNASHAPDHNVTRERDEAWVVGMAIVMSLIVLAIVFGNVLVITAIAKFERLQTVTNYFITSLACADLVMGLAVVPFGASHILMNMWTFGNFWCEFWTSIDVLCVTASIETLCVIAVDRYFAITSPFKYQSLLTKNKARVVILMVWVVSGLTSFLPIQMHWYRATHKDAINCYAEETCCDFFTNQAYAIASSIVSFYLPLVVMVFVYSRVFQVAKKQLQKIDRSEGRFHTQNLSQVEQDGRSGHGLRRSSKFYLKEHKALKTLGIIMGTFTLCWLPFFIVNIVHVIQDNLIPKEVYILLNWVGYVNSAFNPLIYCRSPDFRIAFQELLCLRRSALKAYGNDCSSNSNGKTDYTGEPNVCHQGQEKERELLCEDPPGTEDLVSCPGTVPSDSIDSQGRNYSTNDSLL

Row | SMILES | logD (physchem [1]) | pKa (physchem [2]) | p[A]50 [3] | Beta2 duration [4] [min] | D2 duration [5] [min] | pKa (physchem [6]) | pKa (physchem [7])
1 | Oc1nc2c(O)ccc(CCNCCC(F)(F)CCCOCCc3ccccc3)c2s1 | 3.26 | > 8 | 7.77 | > 180 | – | – | –
2 | CC(C)(CNCCc1ccc(O)c2nc(O)sc12)CSCCOCCc1ccccc1N | 3.44 | > 8 | 7.13 | > 180 | – | – | –
3 | Oc1nc2c(O)ccc(CCNCCSCCCOCCc3ccccc3)c2s1 | 2.86 | > 8 | 8.36 | > 180 | – | – | –
4 | O=C(CCCOCCc1ccccc1)NCCNCCc1ccc(O)c2nc(O)sc12 | 1.55 | > 8 | 7.56 | 71 | – | – | –
5 | Oc1nc2c(O)ccc(CCNCCCOCCSCCc3ccccc3)c2s1 | 1.73 | > 8 | 7.03 | > 180 | – | – | –
6 | Oc1nc2c(O)ccc(CCNCCCSCCOCCOc3ccccc3)c2s1 | 2.11 | > 8 | 7.06 | > 180 | – | – | –
7 | O=[N+]([O-])c1ccc(CCOCCCS(=O)(=O)CCNCCc2ccc(O)c3nc(O)sc23)cc1 | 2.32 | < 8 | 6.73 | 77 | – | – | –
8 | O=S(=O)(CCCOCCc1ccc(Br)cc1)CCNCCc1ccc(O)c2nc(O)sc12 | 3.36 | > 8 | 7.4 | > 180 | – | – | –
9 | Oc1nc2c(O)ccc(CCNCCCCCCOCCc3ccccc3)c2s1 | 2.73 | > 8 | 8.23 | > 180 | 270 | – | –
10 | O=c1[nH]c2c(O)ccc(CCNCCS(=O)(=O)CCCOCCc3ccccc3)c2s1 [SIBENADET] | 2.51 | < 8 | 8.09 | 146 | – | 8.55 | 6.58
11 | Oc1nc2c(O)ccc(CCNCCNCCCOCCc3ccccc3)c2s1 | 0.88 | > 8 | 7.01 | 32 | – | – | –
12 | [O-][S+](CCCNCCc1ccc(O)c2nc(O)sc12)CCOCCc1ccccc1 (stereo not given) | 1.12 | > 8 | 8.47 | 84 | – | – | –
13 | O=S(=O)(CCCNCCc1ccc(O)c2nc(O)sc12)CCOCCc1cccc2ccccc12 | 2.54 | > 8 | 7.73 | > 180 | – | – | –
14 | Oc1nc2c(O)ccc(CCNCCCSCCOCCCc3ccccc3)c2s1 | 2.8 | > 8 | 7.86 | > 180 | – | – | –
15 | Oc1nc2c(O)ccc(CCNCCCOCCOCCc3ccccc3)c2s1 | 1.19 | > 8 | 8.82 | > 180 | – | 7.65 | 9.23
16 | Oc1nc2c(O)ccc(CCNCCSCCCOCCc3ccccn3)c2s1 | 1.75 | > 8 | 7.51 | > 180 | – | – | –
17 | O=S(=O)(CCCOCCc1ccc(O)cc1)CCNCCc1ccc(O)c2nc(O)sc12 | 1.91 | < 8 | 8.65 | 32 | – | – | –
18 | O=S(=O)(CCOCCc1ccccc1)NCCCNCCc1ccc(O)c2nc(O)sc12 | 1.22 | > 8 | 7.51 | 69 | – | – | –
19 | Nc1ccccc1CCOCCS(=O)(=O)CCCNCCc1ccc(O)c2nc(O)sc12 | 1.17 | > 8 | 7.46 | 33 | – | – | –
20 | O=S(=O)(CCCNCCc1ccc(O)c2nc(O)sc12)CCNCCOc1ccccc1 | 0.9 | > 8 | 6.73 | 28 | – | – | –
21 | Oc1nc2cccc(CCNCCCCCCNCCc3ccc(O)c4nc(O)sc34)c2s1 | 1 | > 8 | 7.86 | 45 | – | – | –

Row | SMILES | logD (physchem [1]) | pKa (physchem [2]) | p[A]50 [3] | Beta2 duration [4] [min] | D2 duration [5] [min] | pKa (physchem [6]) | pKa (physchem [7])
22 | O=S(=O)(CCCNCCc1ccc(O)c2nc(O)sc12)CCSCCc1ccccc1 | 2.34 | > 8 | 7.57 | > 180 | – | – | –
23 | Oc1nc2c(O)ccc(CCNCCCSCCOCCc3ccccn3)c2s1 | 0.83 | > 8 | 7.32 | 75 | – | – | –
24 | O=S(=O)(CCCOCCc1ccc(NS(=O)(=O)c2ccccc2)cc1)CCNCCc1ccc(O)c2nc(O)sc12 | 2.88 | < 8 | 7.7 | > 180 | – | – | –
25 | O=S(=O)(CCCOCCCc1ccccc1)CCNCCc1ccc(O)c2nc(O)sc12 | 3.13 | < 8 | 7.35 | 157 | – | – | –
26 | O=C(NCCCCCCNCCc1ccc(O)c2nc(O)sc12)Nc1ccccc1 | 1.26 | > 8 | 7.01 | 60 | – | – | –
27 | O=S(=O)(CCNCCc1ccc(O)c2nc(O)sc12)NCCOCCc1ccccc1 | 2.38 | > 8 | 6.48 | 79 | – | – | –
28 | Cc1cnc(CCOCCCS(=O)(=O)CCNCCc2ccc(O)c3nc(O)sc23)s1 | 2.87 | < 8 | 7.61 | 126 | – | – | –
29 | O=S(=O)(CCCOCCCCc1ccccc1)CCNCCc1ccc(O)c2nc(O)sc12 | 3.62 | < 8 | 7.76 | > 180 | – | – | –
30 | Oc1nc2c(O)ccc(CCNCCOCCCOCCc3ccccc3)c2s1 | 2.06 | > 8 | 7.16 | > 1080 | – | 7.55 | 8.68
31 | O=S(=O)(CCCCCCNCCc1ccc(O)c2nc(O)sc12)CCc1ccccc1 | 1.44 | > 8 | 7 | > 180 | – | – | –
32 | O=S(=O)(CCCOCCc1ccccn1)CCNCCc1ccc(O)c2nc(O)sc12 | 0.95 | < 8 | 7.49 | 24 | – | – | –
33 | CN(CCCS(=O)(=O)CCOCCc1ccccc1)CCc1ccc(O)c2nc(O)sc12 | – | – | – | – | 150 | – | –
34 | O=S(=O)(CCCNCCc1ccc(O)c2nc(O)sc12)NCCOCc1ccccc1 | 1.11 | > 8 | 7.4 | 72 | – | – | –
35 | Oc1nc2c(O)ccc(CCNCCCCCCNCC(F)(F)c3ccccc3)c2s1 | 1.57 | > 8 | 6.84 | > 180 | – | – | –
36 | Oc1nc2c(O)ccc(CCNCCSCCCOCCCc3ccccc3)c2s1 | 3.61 | > 8 | 7.27 | > 180 | – | – | –
37 | O=C(CCCCCNCCc1ccc(O)c2nc(O)sc12)NCCc1ccccc1 | 1.29 | > 8 | 7.18 | 22 | 90 | – | –
38 | O=S(=O)(Nc1ccc(CCOCCCSCCNCCc2ccc(O)c3nc(O)sc23)cc1)c1ccccc1 | 3.52 | > 8 | 7.57 | > 180 | – | – | –
39 | O=[N+]([O-])c1ccc(CCOCCCSCCNCCc2ccc(O)c3nc(O)sc23)cc1 | 3.29 | > 8 | 6.78 | > 180 | – | – | –
40 | O=S(=O)(CCOCCc1ccccc1)NCCNCCc1ccc(O)c2nc(O)sc12 | 1.56 | > 8 | 7.39 | 135 | – | 7.5 | 8.58
41 | O=S(=O)(CCCNCCc1ccc(O)c2nc(O)sc12)CCOCCOc1ccccc1 | 1.13 | > 8 | 7.44 | 52 | – | – | –
42 | O=C(CCOCCCc1ccccc1)NCCNCCc1ccc(O)c2nc(O)sc12 | 1.91 | > 8 | 8.63 | 150 | – | – | –
